Measurements taken from publication PMC4416907, “An Unexpected Mode Of Binding Defines BMS948 as A Full Retinoic Acid Receptor β (RARβ, NR1B2) Selective Agonist” (PLoS ONE, 2015).

Columns and labels:
human RARα1 = test system: T1, human RARα1; assay: Transient transactivation reporter assay, (RARE)3x-tk-luciferase in HeLa cells, agonist mode; format: cell-based; conditions: for agonistic activity on RARα-mediated transactivation: HeLa cells, ligand at single selective concentration, compared with 10 nM TTNPB (100%)
T1 construct: expressed in transfected cells; host or cells: HeLa
Text: (§1) To evaluate the activity of a panel of synthetic retinoids (Fig 1) on RAR-mediated transactivation, we used HeLa cells transiently transfected with human RARα1,-β2, or—γ2 and a (RARE)3x-tk-luciferase reporter gene. Well characterized full agonist and antagonist retinoids were also used as reference compounds (S2 Fig). […] To further characterize the activation profile of BMS compounds, transfected cells were exposed to a range of ligand concentrations to establish dose-response curves.
(§2) (A to C) HeLa cells were transiently cotransfected with the reporter (RARE)3x-tk-Luc and RARα (A), RARβ (B) or RARγ (C), as indicated, to assess the RAR agonist potential of synthetic RAR ligands.
(§3) HeLa cells were cultured in DMEM with Glutamax and 10% (v/v) FCS and transfected using JetPei transfectant (Ozyme). After 24 h, the medium was changed to a medium containing the indicated ligands or vehicle. Cells were lysed and assayed for reporter expression 48 h after transfection. The luciferase assay system was used according to the manufacturer’s instruction (Promega). In each case results were normalized to coexpressed β–galactosidase. Each transfection was carried out in duplicate and repeated each three to six times.

RARβ [1] = conditions: cited from earlier work
RARγ [2] = conditions: also personal data not shown; cited from earlier work
human RARβ2 = target: T2, human RARβ2 (Homo sapiens, UniProt P10826); assay: Transient transactivation reporter assay, (RARE)3x-tk-luciferase in HeLa cells, agonist mode; format: cell-based
T2 construct: expressed in transfected cells; host or cells: HeLa
T2 sequence (P10826 1-448 isoform P10826-2): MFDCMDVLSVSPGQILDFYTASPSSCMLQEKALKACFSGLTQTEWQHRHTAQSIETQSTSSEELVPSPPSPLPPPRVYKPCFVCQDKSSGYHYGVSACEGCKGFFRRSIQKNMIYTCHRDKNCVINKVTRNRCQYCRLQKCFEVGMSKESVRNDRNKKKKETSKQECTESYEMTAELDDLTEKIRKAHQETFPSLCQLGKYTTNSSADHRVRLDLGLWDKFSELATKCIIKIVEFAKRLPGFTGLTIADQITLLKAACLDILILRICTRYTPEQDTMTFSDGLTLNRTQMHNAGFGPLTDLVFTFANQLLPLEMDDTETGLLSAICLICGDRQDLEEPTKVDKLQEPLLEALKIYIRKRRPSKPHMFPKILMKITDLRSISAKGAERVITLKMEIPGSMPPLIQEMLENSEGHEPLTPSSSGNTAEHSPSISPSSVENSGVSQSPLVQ
Text: as §1, §2, §3

human RARγ2 = test system: T3, human RARγ2; assay: as above; format: cell-based
T3 construct: expressed in transfected cells; host or cells: HeLa
Text: as §1, §2, §3

RARα = target: T4, RARα (Homo sapiens, UniProt P10276); assay: Transient transactivation assay, antagonist mode (competition with TTNPB-induced activity); format: cell-based; conditions: reporter activated with 3 nM TTNPB (100%); retinoids at 1 μM or increasing amounts
T4 construct: expressed in transfected cells; host or cells: HeLa
T4 sequence (P10276 1-462): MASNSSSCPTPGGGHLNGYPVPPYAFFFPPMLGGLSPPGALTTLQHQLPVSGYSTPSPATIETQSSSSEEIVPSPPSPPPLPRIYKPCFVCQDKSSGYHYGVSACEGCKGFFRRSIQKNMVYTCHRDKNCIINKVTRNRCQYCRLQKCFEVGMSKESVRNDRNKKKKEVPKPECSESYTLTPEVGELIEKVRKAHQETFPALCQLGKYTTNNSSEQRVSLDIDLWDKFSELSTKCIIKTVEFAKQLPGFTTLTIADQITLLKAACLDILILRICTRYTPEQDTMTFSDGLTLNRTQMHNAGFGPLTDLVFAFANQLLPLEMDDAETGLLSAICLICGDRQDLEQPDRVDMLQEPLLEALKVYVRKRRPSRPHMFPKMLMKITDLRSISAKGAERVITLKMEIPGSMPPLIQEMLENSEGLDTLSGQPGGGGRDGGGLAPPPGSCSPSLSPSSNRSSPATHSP
Protocol: (§4) To this end, transient transactivation assays were conducted in order to assess the ability of the synthetic retinoids to affect TTNPB-induced RAR activity. […] Competition curves with increasing concentrations of BMS411 yielded an IC50 of roughly 30 nM for RARα in keeping with the high affinity of this compound for this receptor subtype (Fig 3D). […] Overall, our data lead to the general conclusion that BMS948 is a full RARβ-selective agonist.
(§5) Fig 3 BMS948 is an RARβ-selective ligands. (A to C) Transient transactivation assays as in Fig 2 to assess the antagonist potential of synthetic RAR ligands (RARα (A), RARβ (B) or RARγ (C)).
as §3

RARβ [3] = test system: T5, RARβ; assay: as above; format: cell-based, human; conditions: reporter activated with 3 nM TTNPB (100%); retinoids at 1 μM or increasing amounts
T5 construct: expressed in transfected cells; host or cells: HeLa
Protocol: as §4, §5, §3

RARγ [4] = test system: T6, RARγ; assay: as above; format: cell-based, human; conditions: reporter activated with 3 nM TTNPB (100%); retinoids at 1 μM or increasing amounts
T6 construct: expressed in transfected cells; host or cells: HeLa
Protocol: as §4, §5, §3

hRARβL298F = test system: T7, hRARβL298F; assay: Transient transactivation assay with mutant hRARβL298F in HeLa cells; format: cell-based, human
T7 construct: expressed in transfected cells; host or cells: HeLa
Protocol: The construct was verified by DNA sequencing.
as §3
(EPS) Click here for additional data file.

RARβ-TIF2 interaction = test system: T8, RARβ-TIF2 interaction; assay: Mammalian two-hybrid assay Gal-TIF2 / VP16-RARβLBD in HeLa cells; format: cell-based; conditions: BMS compounds at 1 μM, TTNPB 10 nM
T8 construct: expressed in transfected cells; host or cells: HeLa
Text: (§6) Supplementary file pone.0123195.s005.eps: S5 Fig Molecular basis of BMS641 partial activity. According to the current model of gene regulation by RARs, the agonistic property of a given retinoid depends on its ability to induce coregulator recruitment. RAR agonists dissociate corepressors (such as SMRT) and induce the recruitment coactivators (such as TIF2), resulting in transactivation. […] BMS641 was therefore categorized as a partial RARβ agonist. To further characterize the partial activity of BMS641, we used two-hybrid assays to monitor the interaction between RARβ and transcriptional coregulators in the presence of various retinoids. In these assays, a chimeric luciferase-based reporter gene ((17 m)5x-βGlob-Luc) is transfected together with two expression vectors. One expresses a fusion protein (Gal-TIF2 or Gal-SMRT) that binds through the Gal DNA binding domain (Gal) to the pentamer of the “17m” DNA recognition site in the reporter gene and contains the nuclear receptor interacting domain of the coregulator. The other vector expresses a second fusion protein composed of the VP16 acidic transcription activation domain, and the LBD of RARβ. […] Strikingly, the RARβ-SMRT interaction was maintained in the presence of BMS641, in agreement with the partial agonistic activity of this compound. […] BMS641 induces reduced coactivator recruitment, but cannot dissociate corepressors. […]

RARβ-SMRT interaction = test system: T9, RARβ-SMRT interaction; assay: Mammalian two-hybrid assay Gal-SMRT / VP16-RARβLBD in HeLa cells; format: cell-based; conditions: BMS compounds at 1 μM, TTNPB 10 nM; 100% = absence of ligand
T9 construct: expressed in transfected cells; host or cells: HeLa
Text: as §6

RARγ→β = test system: T10, RARγ→β; assay: Transient transactivation assay with chimeric LBP mutant RARγ→β in HeLa cells; format: cell-based; conditions: 10^–9 to 10^–6 M; 100% = TTNPB at 10nM
T10 construct: expressed in transfected cells; host or cells: HeLa
Text: (§7) Supplementary file pone.0123195.s004.eps: S4 Fig The methionine 272 of RARγ LBP is a most important discriminatory element for the RARβ-specific response to BMS948. […] To investigate the role of these residues in the RARβ–specific response to BMS948, we compared the agonistic and antagonistic potentials of this compound for RARβ and RARγ, as well as chimeric RAR mutants in which LBPs were interconverted (denoted RARβ→γ and RARγ→β). Dose-response curves were established from transient transfection in HeLa cells of these proteins and a (RARE)3x-tk-luciferase reporter gene as described in Figs 2 and 3. […] (A) HeLa cells were transiently cotransfected with the reporter (RARE)3x-tk-Luc and RARβ (open circles), RARγ (closed diamonds), RARγ→β in which the methionine residue 272 in RARγ LBP is replaced by an isoleucine residue (open squares), or RARβ→γ in which the isoleucine residue 263 in RARβ LBP is replaced by a methionine residue (closed triangles) to assess the agonist potential of BMS948. […] (B) Transient transfection assays in HeLa cells with the reporter (RARE)3x-tk-Luc and RARβ→γ as in (A) to assess the antagonist potential of BMS948 and BMS493. […] (EPS) Click here for additional data file.

RARβ→γ = test system: T11, RARβ→γ; assay: Transient transactivation assay with chimeric LBP mutant RARβ→γ in HeLa cells; format: cell-based
T11 construct: expressed in transfected cells; host or cells: HeLa
Text: as §7

[5] = 10^–10 to 10^–6 M, only at the highest ligand concentration used (1 μM)

Row | SMILES | agonistic activity on RARα-mediated transactivation (human RARα1) | reported activity on RARβ (RARβ [1]) | reported activity on RARγ (RARγ [2]) | activation of RARα in dose-response curves (human RARα1; [5]) | EC50 (human RARβ2; dose-response 10^–10 to 10^–6 M, read-out: EC50 transactivation for RARβ) [nM] | agonistic activity on RARβ-mediated transactivation (human RARβ2; ligand at single selective concentration, compared with 10 nM TTNPB (100%)) | activation of RARγ in dose-response curves (human RARγ2; [5]) | agonistic activity on RARγ-mediated transactivation (human RARγ2; HeLa cells, ligand at single selective concentration, compared with 10 nM TTNPB (100%)) | antagonistic activity on TTNPB-induced RARα transactivation (RARα) | antagonistic activity on TTNPB-induced RARβ transactivation (RARβ [3]) | antagonistic activity on TTNPB-induced RARγ transactivation (RARγ [4]) | efficacy on RARβL298F in dose-response curves (hRARβL298F; S6 Fig, increasing concentrations) [%] | transcriptional activity on RARβL298F as compared to TTNPB (hRARβL298F; retinoids at 0.1 μM, 10 nM TTNPB = 100% with wild-type hRARβ) | RARβ-TIF2 interaction (coactivator recruitment) (RARβ-TIF2 interaction) | RARβ-SMRT interaction (corepressor binding) (RARβ-SMRT interaction) | agonist potential on RARγ→β (RARγ→β) | antagonist potential on RARβ→γ (RARβ→γ; 3 nM TTNPB (100%) plus compound at 1 μM) | agonist potential on RARβ→γ (RARβ→γ; 10^–9 to 10^–6 M, 100% = TTNPB at 10nM, only at high concentration)
1 | CC1(C)CCC(C)(C)c2cc(C(=O)Nc3ccc(C(=O)O)cc3)ccc21 [Am580, reference compound] | full agonistic activity | – | – | – | – | – | – | – | – | – | – | – | – | – | – | – | – | –
2 | CN1c2cc3c(cc2N=C(c2ccc(C(=O)O)cc2)c2ccccc21)C(C)(C)CCC3(C)C [LE135] | – | antagonist showing some selectivity for RARβ | some RARγ partial agonistic activity | – | – | – | – | – | – | – | – | – | – | – | – | – | – | –
3 | O=C(O)c1ccc(NC(=O)c2ccc3cccc(-c4ccccc4)c3c2)cc1 [BMS948] | very weak activity | – | – | very weakly | ~100 | full RARβ-agonist | very weakly | very weak activity | very weak | no | very weak | 70 | 50–60% | optimal | decreased | potent full agonist | did not reduce TTNPB-induced activity | very weak activation
